# In patent US20070287738A1, “Substituted Cyanopyridines as protein kinase inhibitors” (priority 2006, published 2007):
# Molecular target: T1, human PKCθ full length enzyme (Homo sapiens, UniProt Q04759)
# T1 construct: human PKCθ full length enzyme (Panvera Cat# P2996); purchased Panvera P2996
# Test: PKCθ IMAP assay
# Format: biochemical
# Details: full length enzyme 1 nM; ATP 6 μM; peptide 100 nM; FP readout; average value
# Method: The materials used include the following: human PKCθ full length enzyme (Panvera Cat# P2996); substrate peptide: 5FAM-RFARKGSLRQKNV-OH (Molecular Devices, RP7032); ATP (Sigma Cat # A2383); DTT (Pierce, 20291); 5× kinase reaction buffer (Molecular Devices, R7209); 5× binding buffer A (Molecular Devices, R7282), 5× binding buffer B (Molecular Devices, R7209); IMAP Beads (Molecular Devices, R7284); and 384-well plates (Corning Costar, 3710).
# The reaction buffer was prepared by diluting the 5× stock reaction buffer and adding DTT to obtain a concentration of 3.0 mM. The binding buffer was prepared by diluting the 5× binding buffer A. A master mix solution was prepared using a 90% dilution of the reaction buffer containing 2× ATP (12 uM) and 2× peptide (200 nm). Compounds were diluted in DMSO to 20× of the maximum concentration for the IC50 measurement. 27 μl of the master mix solution for each IC50 curve was added to the first column in a 384-well plate and 3 μl of 20× compound in DMSO was added to each well. The final concentration of compound was 2× and 10% DMSO. DMSO was added to the rest of the master mix to increase the concentration to 10%. 10 μl of the master mix containing 10% DMSO was added to the rest of the wells on the plate except the 2nd column. 20 μl was transferred from the first column to the 2nd column.
# The compounds were serially diluted in 2:1 ratio starting from the 2nd column. A 2× (2 nM) PKCθ solution was made in the reaction buffer. 10 μl of the PKCθ solution was added to every well to achieve these final concentrations: PKCθ—1 nM; ATP—6 μM; peptide—100 nM; DMSO—5%. Samples were incubated for 25 minutes at room temperature. The binding reagent was prepared by diluting the beads in 1× binding buffer to 800:1. 50 μl of the binding reagent was added to every well and incubated for 20 minutes. FP was measured using Envision2100 (PerkinElmer Life Sciences). Wells with no ATPs and wells with no enzymes were used as controls.
# T1 sequence (Q04759 whole entry): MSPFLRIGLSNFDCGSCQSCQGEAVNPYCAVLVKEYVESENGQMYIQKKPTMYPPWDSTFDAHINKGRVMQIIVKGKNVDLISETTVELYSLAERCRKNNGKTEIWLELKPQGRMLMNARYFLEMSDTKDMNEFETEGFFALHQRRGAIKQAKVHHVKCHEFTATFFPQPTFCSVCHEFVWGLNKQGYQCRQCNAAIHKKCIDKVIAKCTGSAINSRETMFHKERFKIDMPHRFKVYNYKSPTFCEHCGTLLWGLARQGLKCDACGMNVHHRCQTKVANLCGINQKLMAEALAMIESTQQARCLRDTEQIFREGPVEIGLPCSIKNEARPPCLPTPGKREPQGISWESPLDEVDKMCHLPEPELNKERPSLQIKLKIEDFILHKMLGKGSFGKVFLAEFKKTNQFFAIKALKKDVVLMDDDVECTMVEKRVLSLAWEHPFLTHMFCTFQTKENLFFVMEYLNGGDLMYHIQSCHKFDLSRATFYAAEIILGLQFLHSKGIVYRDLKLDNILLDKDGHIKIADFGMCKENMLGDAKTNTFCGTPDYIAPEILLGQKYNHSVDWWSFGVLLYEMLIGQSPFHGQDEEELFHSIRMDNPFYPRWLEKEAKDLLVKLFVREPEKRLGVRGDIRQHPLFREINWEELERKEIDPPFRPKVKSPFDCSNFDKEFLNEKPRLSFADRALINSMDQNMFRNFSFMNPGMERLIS
row,IC50 [µM],SMILES
1,0.18,"COc1cc(Nc2c(C#N)cncc2-c2ccc(OC)c(OC)c2)c(Cl)cc1Cl [Compound 137, 4-[(2,4-dichloro-5-methoxyphenyl)amino]-5-(3,4-dimethoxyphenyl)nicotinonitrile]"
2,1.95,"COc1ccc(-c2cncc(C#N)c2Nc2cc(OC)c(OC)c(OC)c2)cc1OC [Compound 119, 5-(3,4-dimethoxyphenyl)-4-[(3,4,5-trimethoxyphenyl)amino]nicotinonitrile]"
3,0.1,"COc1ccc(-c2cncc(C#N)c2Nc2cc(OCCO)c(Cl)cc2Cl)cc1OC [Compound 141, 4-{[2,4-dichloro-5-(2-hydroxyethoxy)phenyl]amino}-5-(3,4-dimethoxyphenyl)nicotinonitrile]"

# Molecular target: T2, purified recombinant active kinase domain of full length PKC theta (amino acids 362-706) (Homo sapiens, UniProt Q04759)
# T2 construct: active kinase domain of full length PKC theta (amino acids 362-706)
# T2 sequence (Q04759 362-706): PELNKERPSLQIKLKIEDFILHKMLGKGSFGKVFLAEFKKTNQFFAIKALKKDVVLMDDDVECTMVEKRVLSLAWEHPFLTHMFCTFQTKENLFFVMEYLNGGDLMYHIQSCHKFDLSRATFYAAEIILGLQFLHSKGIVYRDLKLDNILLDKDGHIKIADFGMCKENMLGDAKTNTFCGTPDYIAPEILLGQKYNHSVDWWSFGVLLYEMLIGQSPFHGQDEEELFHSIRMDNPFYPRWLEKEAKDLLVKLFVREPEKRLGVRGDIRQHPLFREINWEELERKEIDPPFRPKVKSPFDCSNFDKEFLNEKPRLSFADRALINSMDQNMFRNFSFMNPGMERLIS
# Test: Radioactive kinase assay for inhibition of the active kinase domain (KD) of PKCθ
# Format: biochemical
# Details: radioactive (ATP γ P33) assay, average value
# Method: A Radioactive Kinase Assay for Inhibition of the Active Kinase Domain (KD) of PKCθ
# (§1) This assay is based on the phosphorylation of a biotinylated substrate by a kinase utilizing radiolabeled ATP (ATP γ P33). The substrate was a biotinylated peptide with a sequence of biotin-FARKGSLRQ-C(O)NH2. The enzyme was purified recombinant active kinase domain of full length PKC theta (amino acids 362-706). The assay buffer was composed of 100 mM Hepes, pH7.5, 2 mM MgCl2, 20 mM β-glycerophosphate and 0.008% TritonX 100. A reaction mixture of ATP, ATP γ P33 (PerkinElmer), DTT, and the enzyme was prepared in the assay buffer and added to a 96-well polypropylene plate. The compound (diluted in DMSO in a separate 96-well polypropylene plate) was added to the reaction mixture and incubated at room temperature. Following the incubation, the peptide substrate was added to the reaction mixture to initiate the enzymatic reaction. The reaction was terminated with the addition of a stop solution (100 mM EDTA, 0.2% TritonX100, and 20 mM NaHPO4) and transferred from the assay plate to a washed streptavidin-coated 96-well scintiplate (PerkinElmer). The scintiplate was incubated at room temperature, washed in PBS with 0.1% TritonX 100, and counted in the 1450 Microbeta Trilux (Wallac, Version 2.60). Counts were recorded for each well as corrected counts per minute (CCPM). The counts were considered corrected because they were adjusted according to a P33 normalization protocol, which corrects for efficiency and background differences between the instrument detectors (software version 4.40.01).
row,SMILES,IC50 [µM]
1,"COc1ccc(-c2cncc(C#N)c2Nc2ccc(Cl)cc2)cc1OC [Compound 108, 4-[(4-chlorophenyl)amino]-5-(3,4-dimethoxyphenyl)nicotinonitrile]",2.77
2,"COc1cc(Nc2c(C#N)cncc2-c2ccc(OC)c(OC)c2)c(Cl)cc1Cl [Compound 137, 4-[(2,4-dichloro-5-methoxyphenyl)amino]-5-(3,4-dimethoxyphenyl)nicotinonitrile]",0.19
3,"COc1ccc(Cl)cc1Nc1c(C#N)cncc1-c1ccc(OC)c(OC)c1 [Compound 116, 4-[(5-chloro-2-methoxyphenyl)amino]-5-(3,4-dimethoxyphenyl)nicotinonitrile]",3.2
4,"COc1ccc(Nc2c(C#N)cncc2-c2ccc(OC)c(OC)c2)cc1OC [Compound 105, 5-(3,4-dimethoxyphenyl)-4-[(3,4-dimethoxyphenyl)amino]nicotinonitrile]",10.6
5,"COc1ccc(-c2cncc(C#N)c2Nc2cc(OC)c(OC)c(OC)c2)cc1OC [Compound 119, 5-(3,4-dimethoxyphenyl)-4-[(3,4,5-trimethoxyphenyl)amino]nicotinonitrile]",11.7
6,"COc1ccc(-c2cncc(C#N)c2Nc2ccc(C)cc2C)cc1OC [Compound 109, 5-(3,4-dimethoxyphenyl)-4-[(2,4-dimethylphenyl)amino]nicotinonitrile]",0.81
7,"COc1ccc(-c2cncc(C#N)c2Nc2ccc(OCc3cccc(C#N)c3)c(Cl)c2)cc1OC [Compound 122, 4-({3-chloro-4-[(3-cyanobenzyl)oxy]phenyl}amino)-5-(3,4-dimethoxyphenyl)nicotinonitrile]",1040
8,"COc1ccc(-c2cncc(C#N)c2Nc2ccc(Cl)cc2F)cc1OC [Compound 106, 4-[(4-chloro-2-fluorophenyl)amino]-5-(3,4-dimethoxyphenyl)nicotinonitrile]",0.84

# Second part, the compound after the results:
row,IC50 [µM],SMILES
1,4.26,"COc1ccc(-c2cncc(C#N)c2Nc2ccc(Cl)c(Cl)c2)cc1OC [Compound 115, 4-[(3,4-dichlorophenyl)amino]-5-(3,4-dimethoxyphenyl)nicotinonitrile]"
2,0.6,"COc1ccc(-c2cncc(C#N)c2Nc2cc(F)ccc2F)cc1OC [Compound 104, 4-[(2,5-difluorophenyl)amino]-5-(3,4-dimethoxyphenyl)nicotinonitrile]"
3,6.87,"COc1ccc(-c2cncc(C#N)c2Nc2cccc(Cl)c2)cc1OC [Compound 101, 4-[(3-chlorophenyl)amino]-5-(3,4-dimethoxyphenyl)nicotinonitrile]"
4,38,"COc1ccc(-c2cncc(C#N)c2Nc2ccc(OCc3cccs3)c(Cl)c2)cc1OC [Compound 123, 4-{[3-chloro-4-(thien-2-ylmethoxy)phenyl]amino}-5-(3,4-dimethoxyphenyl)nicotinonitrile]"
5,1.16,"COc1ccc(Nc2c(C#N)cncc2-c2ccc(OC)c(OC)c2)cc1 [Compound 110, 5-(3,4-dimethoxyphenyl)-4-[(4-methoxyphenyl)amino]nicotinonitrile]"
6,1.41,"COc1ccc(Nc2c(C#N)cncc2-c2ccc(OC)c(OC)c2)cc1Cl [Compound 111, 4-[(3-chloro-4-methoxyphenyl)amino]-5-(3,4-dimethoxyphenyl)nicotinonitrile]"
7,2.91,"COc1ccc(-c2cncc(C#N)c2Nc2ccc(F)c(Cl)c2)cc1OC [Compound 107, 4-[(3-chloro-4-fluorophenyl)amino]-5-(3,4-dimethoxyphenyl)nicotinonitrile]"
8,0.34,"COc1ccc(-c2cncc(C#N)c2Nc2ccc(Cl)cc2Cl)cc1OC [Compound 126, 4-[(2,4-dichlorophenyl)amino]-5-(3,4-dimethoxyphenyl)nicotinonitrile]"
9,158,"N#Cc1cncc(-c2cccc([N+](=O)[O-])c2)c1Nc1ccc(F)c(Cl)c1 [Compound 144, 4-[(3-chloro-4-fluorophenyl)amino]-5-(3-nitrophenyl)nicotinonitrile]"
10,3.85,"N#Cc1cncc(-c2ccccc2[N+](=O)[O-])c1Nc1ccc(F)c(Cl)c1 [Compound 146, 4-[(3-chloro-4-fluorophenyl)amino]-5-(2-nitrophenyl)nicotinonitrile]"
11,0.4,"COc1ccc(Nc2c(C#N)cncc2-c2ccc(OC)c(OC)c2)c(C)c1 [Compound 114, 5-(3,4-dimethoxyphenyl)-4-[(4-methoxy-2-methylphenyl)amino]nicotinonitrile]"
12,4.44,"COc1ccc(-c2cncc(C#N)c2Nc2ccc(C)cc2)cc1OC [Compound 118, 5-(3,4-dimethoxyphenyl)-4-[(4-methylphenyl)amino]nicotinonitrile]"

# Molecular target: T3, purified recombinant full length PKC theta (Panvera, P2996) (Homo sapiens, UniProt Q04759)
# T3 construct: purified recombinant full length PKC theta (Panvera, P2996); purchased Panvera P2996
# T3 sequence (Q04759 whole entry): as the sequence (Q04759 whole entry) above
# Test: Radioactive kinase assay for inhibition of full length (FL) PKCθ
# Format: biochemical
# Details: full length enzyme; radioactive (ATP γ P33) assay; average value
# Method: as §1
# A Radioactive Kinase Assay for Inhibition of Full Length (FL) PKCθ Inhibitors
# This assay differs from what was described above in that the enzyme used was purified recombinant full length PKC theta (Panvera, P2996).
row,SMILES,IC50 [µM]
1,"CCOc1cc(Nc2c(C#N)cncc2-c2ccc(OC)c(OC)c2)c(Cl)cc1Cl [Compound 138, 4-[(2,4-dichloro-5-ethoxyphenyl)amino]-5-(3,4-dimethoxyphenyl)nicotinonitrile]",0.32
2,"COc1cc(Nc2c(C#N)cncc2-c2ccc(OC)c(OC)c2)c(Cl)cc1Cl [Compound 137, 4-[(2,4-dichloro-5-methoxyphenyl)amino]-5-(3,4-dimethoxyphenyl)nicotinonitrile]",0.16
3,"CCCCOc1cc(Nc2c(C#N)cncc2-c2ccc(OC)c(OC)c2)c(Cl)cc1Cl [Compound 140, 4-[(5-butoxy-2,4-dichlorophenyl)amino]-5-(3,4-dimethoxyphenyl)nicotinonitrile]",9.75
4,"CCCOc1cc(Nc2c(C#N)cncc2-c2ccc(OC)c(OC)c2)c(Cl)cc1Cl [Compound 139, 4-[(2,4-dichloro-5-propoxyphenyl)amino]-5-(3,4-dimethoxyphenyl)nicotinonitrile]",8
5,"COCCOc1cc(-c2cncc(C#N)c2Nc2cc(OC)c(Cl)cc2Cl)ccc1OC [Compound 148, 4-[(2,4-dichloro-5-methoxyphenyl)amino]-5-[4-methoxy-3-(2-methoxyethoxy)phenyl]nicotinonitrile]",0.52

# Other lines, results leading:
row,IC50 [µM],SMILES
1,7.1,"COc1cc(Nc2c(C#N)cncc2-c2cccc(OCCN3CCCC3)c2)c(Cl)cc1Cl [Compound 151, 4-[(2,4-dichloro-5-methoxyphenyl)amino]-5-[3-(2-pyrrolidin-1-ylethoxy)phenyl]nicotinonitrile]"
2,0.38,"COc1ccc(-c2cncc(C#N)c2Nc2ccc(Cl)c(Cl)c2)cc1OC [Compound 115, 4-[(3,4-dichlorophenyl)amino]-5-(3,4-dimethoxyphenyl)nicotinonitrile]"
3,0.5,"COc1cc(Nc2c(C#N)cncc2-c2cccc(OCCCl)c2)c(Cl)cc1Cl [Compound 150, 5-[3-(2-chloroethoxy)phenyl]-4-[(2,4-dichloro-5-methoxyphenyl)amino]nicotinonitrile]"
4,7.09,"COCCOc1ccc(-c2cncc(C#N)c2Nc2cc(OC)c(Cl)cc2Cl)cc1OC [Compound 149, 4-[(2,4-dichloro-5-methoxyphenyl)amino]-5-[3-methoxy-4-(2-methoxyethoxy)phenyl]nicotinonitrile]"
5,0.16,"COc1ccc(-c2cncc(C#N)c2Nc2cc(OCCO)c(Cl)cc2Cl)cc1OC [Compound 141, 4-{[2,4-dichloro-5-(2-hydroxyethoxy)phenyl]amino}-5-(3,4-dimethoxyphenyl)nicotinonitrile]"
